# Data: patent publication US7468369B2, “Sulfonyl pyrrolidines, method for producing the same and their use as drugs” (Sanofi-Aventis, priority 2005, dated 2008)
# Structures can show the parent of a compound that is named as a salt.
# Tested on: human ABCA1 promoter
# Assay: ABCA1 promoter test (luciferase reporter in stably transfected THP1 cell line)
# Assay type: cell-based
# Details: Homo sapiens, THP-1; ABCA1 reporter cell line (THP1, PMA-differentiated), 24 h incubation, luciferase chemiluminescence; read-out: E50 ABCA1
# Procedure: The potency of substances which activate expression of the human ABCA1 gene via its promoter is analyzed by using a stably transfected THP1 cell line (human monocyte cell line) which is referred to herein as ABCA1 reporter cell line. It contains a fragment, 3.2 kb in size and stably integrated into the genome, of the human ABCA1 promoter in front of a luciferase reporter element. Expression of the luciferase reporter gene is only low without addition of an ABCA1 expression activator. The substances stimulating ABCA1 expression bring about, via activation of the ABCA1 promoter, an enhanced expression of the luciferase reporter gene. The luciferase which is formed can be detected via an appropriate substrate by means of chemiluminescence.
# Construction of the Cell Line
# The ABCA1 reporter line was prepared as follows: firstly the neomycin resistance gene (Acc. No.: AJ000156) was introduced into the luciferase reporter plasmid pLG3basic (#1751, Promega) 3′ below the luciferase reporter element. Subsequently, an ABCA1 promoter fragment, 3.2 kb in size and amplified from human genomic DNA (#6550-1, Clontech) by the polymerase chain reaction, was cloned in 5′ above the luciferase reporter element. The reporter plasmid produced in this way was called pGL3BN-ABCA1P. Luciferase expression in this plasmid is controlled by the ABCA1 promoter. Cloning and sequencing of the construct took place in analogy to the description in Sambrook J et al. (Molecular cloning, Cold Spring Harbor Laboratory Press, 1989). For stable transfection into THP1 cells, firstly pGL3BN-ABCA1P was linearized with a restriction endonuclease and then introduced into the THP1 cells as stated in Ausubel, F. M. et al. (Current protocols in molecular biology, Vol. 1-3, John Wiley & Sons, Inc., 1995).
# The activity of ABCA1 expression activators is determined in a 3-day test which is described below:
# The ABCA1 reporter cell line comprises suspension cells. These are cultured until the concentration is 0.5×10^6 cells/ml in RPMI medium (#52400-025, Invitrogen) which is mixed with the following additions: 10% FCS (fetal calf serum; #16000-044, invitrogen), 0.5 mg/ml Geneticin (#10131-019, invitrogen) and 1% penicillin-streptomycin solution (#15140-122, invitrogen). The culturing takes place in standard cell culture flasks (#353112, Becton Dickinson) in a cell culture incubator at 37° C. in the presence of 5% CO2.
# For the ABCA1 promoter test, the suspension cells are centrifuged at 1200 rpm in 50 ml tubes. The supernatant is aspirated off, and the pellet is resuspended in 15 ml of RPMI medium and counted in a cell counter. After dilution to 175 000 cells/ml, 0.1 μg/ml PMA (phorbol 12-myristate 13-acetate, #8139-5MG, Sigma) is added in order to induce differentiation of the monocytic THP1 suspension cells into adherent macrophages. 35 000 cells in each well are seeded in a 96-well microtiter plate with clear plastic base (#3610, Corning Costar). The plates are incubated in a cell culture incubator at 37° C. and 5% CO2 for 24 h.
# The ABCA1 expression activators to be tested are dissolved in a concentration of 10 mM in DMSO. This stock solution is diluted in the RPMI medium (mixed with 0.1 μg/ml PMA) described above. Test substances are tested in 11 different concentrations in the range from […] to 330 pM. The medium of the ABCA1 reporter cell line seeded on day 1 is completely removed by aspiration and the diluted test substances are immediately added to the cells. The dilution and addition of the substances takes place with a pipetting robot (Beckman FX). The final volume of the test substances diluted in medium is 100 μl per well of a 96-well microtiter plate. The DMSO concentration in the test is less than 0.1% v/v in order to avoid cytotoxic effects of the solvent.
# The test plates are incubated in an incubator at 37° C. and 5% CO2 for 24 h.
# The ABCA1 reporter cells treated with the test substances are removed from the incubator and the medium is aspirated off. […]
row,SMILES,EC50 [nM]
1,COc1ccc(N2CCN(C(=O)[C@@H]3CN(S(=O)(=O)c4cc(Br)c(Br)s4)C[C@H]3c3ccccc3)CC2)cc1 (racemic) [Example 59],1160
2,"Cc1ccc(C)c(N2CCN(C(=O)[C@@H]3CN(S(=O)(=O)c4c(C)noc4C)C[C@H]3c3ccccc3)CC2)c1 (racemic) [Example 71, [1-(3,5-Dimethylisoxazole-4-sulfonyl)-3,4-trans-4-phenylpyrrolidin-3-yl]-[4-(2,5-dimethylphenyl)piperazin-1-yl]methanone]",381
3,Cc1ccc(N2CCN(C(=O)[C@@H]3CN(S(=O)(=O)c4cc(Cl)c(Cl)s4)C[C@H]3c3ccccc3)CC2)c(C)c1 (racemic) [Example 39],3730
4,COc1cccc(S(=O)(=O)N2C[C@@H](C(=O)N3CCN(c4c(C)cccc4C)CC3)[C@H](c3ccccc3)C2)c1 (racemic) [Example 86],459
5,"O=C([C@@H]1CN(S(=O)(=O)c2cc(Cl)c(Cl)s2)C[C@H]1c1ccccc1)N1CCN(c2ccccc2)CC1 [Example 21, [1-(4,5-Dichlorothiophene-2-sulfonyl)-3,4-trans-4-phenylpyrrolidin-3-yl]-(4-phenylpiperazin-1-yl)methanone]",4620
6,"COc1ccc(OC)c(N2CCN(C(=O)[C@@H]3CN(S(=O)(=O)c4cccc5nonc45)C[C@H]3c3ccccc3)CC2)c1 [Example 83, [1-(Benzo[1,2,5]oxadiazole-4-sulfonyl)-3,4-trans-4-phenylpyrrolidin-3-yl]-[4-1-(2,5-dimethoxyphenyl)piperazin-1-yl]methanone trifluoroacetate]",3000
7,"Cc1cccc(S(=O)(=O)N2C[C@@H](C(=O)N3CCN(c4cc(Cl)ccc4Cl)CC3)[C@H](c3ccccc3)C2)c1 [Example 74, [4-(2,5-Dichlorophenyl)piperazin-1-yl]-[3,4-trans-4-phenyl-1-(toluene-3-sulfonyl)pyrrolidin-3-yl]methanone trifluoroacetate]",340
8,"COc1ccc(OC)c(N2CCN(C(=O)[C@@H]3CN(S(=O)(=O)c4cccs4)C[C@H]3c3ccccc3)CC2)c1 [Example 84, [4-(2,5-Dimethoxyphenyl)piperazin-1-yl]-[3,4-trans-4-phenyl-1-(thiophene-2-sulfonyl)pyrrolidin-3-yl]methanone trifluoroacetate]",2670
9,COc1ccc(OC)c(N2CCN(C(=O)[C@@H]3CN(S(=O)(=O)c4c(C)noc4C)C[C@H]3c3ccccc3)CC2)c1 [Example 81],1820
10,"Cc1cccc(N2CCN(C(=O)[C@@H]3CN(S(=O)(=O)c4cc(Cl)c(Cl)s4)C[C@H]3c3ccccc3)CC2)c1C (racemic) [Example 55, [1-(4,5-Dichlorothiophene-2-sulfonyl)-3,4-trans-4-phenylpyrrolidin-3-yl]-[4-(2,3-dimethylphenyl)piperazin-1-yl]methanone]",826
11,"Cc1ccc(C)c(N2CCN(C(=O)[C@@H]3CN(S(=O)(=O)c4ccc(Cl)s4)C[C@H]3c3ccccc3)CC2)c1 (racemic) [Example 48, [1-(5-Chlorothiophen-2-sulfonyl)-3,4-trans-4-phenylpyrrolidin-3-yl]-[4-(2,5-dimethylphenyl)piperazin-1-yl]methanone]",706
12,"COc1cccc(S(=O)(=O)N2C[C@@H](C(=O)N3CCN(c4cc(C)ccc4C)CC3)[C@H](c3ccccc3)C2)c1 (racemic) [Example 69, [4-(2,5-Dimethylphenyl)piperazin-1-yl]-[1-(3-methoxybenzenesulfonyl)-3,4-trans-4-phenylpyrrolidin-3-yl]methanone]",330
13,"Cc1ccc(C)c(N2CCN(C(=O)[C@@H]3CN(S(=O)(=O)c4cccnc4)C[C@H]3c3ccccc3)CC2)c1 [Example 72, [4-(2,5-Dimethylphenyl)piperazin-1-yl]-[3,4-trans-4-phenyl-1-(pyridine-3-sulfonyl)pyrrolidin-3-yl]methanone trifluoroacetate]",241
14,"COc1ccccc1N1CCN(C(=O)[C@@H]2CN(S(=O)(=O)c3cccs3)C[C@H]2c2ccccc2)CC1 (racemic) [Example 24, [4-(2-Methoxyphenyl)piperazin-1-yl]-[3,4-trans-4-phenyl-1-(thiophene-2-sulfonyl)pyrrolidin-3-yl]methanone]",15000
15,"COc1ccccc1N1CCN(C(=O)[C@@H]2CN(S(=O)(=O)c3cc(Br)c(Br)s3)C[C@H]2c2ccccc2)CC1 (racemic) [Example 25, [1-(4,5-Dibromothiophene-2-sulfonyl)-3,4-trans-4-phenylpyrrolidin-3-yl]-[4-(2-methoxyphenyl)piperazin-1-yl]methanone]",3810
16,"COc1ccccc1N1CCN(C(=O)[C@@H]2CN(S(=O)(=O)c3sc4ccc(Cl)cc4c3C)C[C@H]2c2ccccc2)CC1 (racemic) [Example 29, [1-(5-Chloro-3-methylbenzo[b]thiophene-2-sulfonyl)-3,4-trans-4-phenyl-pyrrolidin-3-yl]-[4-(2-methoxyphenyl)piperazin-1-yl]methanone]",5610

# Next, values leading:
row,EC50 [nM],SMILES
1,401,"Cc1ccc(C)c(N2CCN(C(=O)[C@@H]3CN(S(=O)(=O)c4c(C)noc4C)C[C@H]3c3ccccc3C)CC2)c1 [Example 98, [1-(3,5-Dimethylisoxazole-4-sulfonyl)-3,4-trans-4-o-tolylpyrrolidin-3-yl]-[4-(2,5-dimethylphenyl)piperazin-1-yl]methanone trifluoroacetate]"
2,1230,"Cc1ccc(C)c(N2CCN(C(=O)[C@@H]3CN(S(=O)(=O)c4c(C)noc4C)C[C@H]3c3ccc4c(c3)OCO4)CC2)c1 [Example 87, [3,4-trans-4-Benzo[1,3]dioxol-5-yl-1-(3,5-dimethylisoxazole-4-sulfonyl)-pyrrolidin-3-yl]-[4-(2,5-dimethylphenyl)piperazin-1-yl]methanone trifluoroacetate]"
3,1350,"Cc1ccc(C)c(N2CCN(C(=O)[C@@H]3CN(S(=O)(=O)c4cccnc4)C[C@H]3c3ccccc3C)CC2)c1 [Example 100, [4-(2,5-Dimethylphenyl)piperazin-1-yl]-[1-(pyridine-3-sulfonyl)-3,4-trans-4-o-tolylpyrrolidin-3-yl]methanone trifluoroacetate]"
4,14300,"Cc1ccc(C)c(N2CCN(C(=O)[C@@H]3CN(S(=O)(=O)c4c(C)noc4C)C[C@H]3c3cccnc3)CC2)c1 [Example 112, [1-(3,5-Dimethylisoxazole-4-sulfonyl)-3,4-trans-4-pyridin-3-ylpyrrolidin-3-yl]-[4-(2,5-dimethylphenyl)piperazin-1-yl]methanone trifluoroacetate]"
5,585,"Cc1ccc(C)c(N2CCN(C(=O)[C@@H]3CN(S(=O)(=O)c4c(C)noc4C)C[C@H]3c3cccc4c3OCO4)CC2)c1 [Example 108, [3,4-trans-4-Benzo[1,3]dioxol-4-yl-1-(3,5-dimethylisoxazole-4-sulfonyl)-pyrrolidin-3-yl]-[4-(2,5-dimethylphenyl)piperazin-1-yl]methanone trifluoroacetate]"
6,4590,"Cc1ccc(C)c(N2CCN(C(=O)[C@@H]3CN(S(=O)(=O)c4c(C)noc4C)C[C@H]3C(C)C)CC2)c1 [Example 95, [1-(3,5-Dimethyl isoxazole-4-sulfonyl)-3,4-trans-4-isopropylpyrrolidin-3-yl]-[4-(2,5-dimethylphenyl)piperazin-1-yl]methanone trifluoroacetate]"
7,372,"Cc1ccc(C)c(N2CCN(C(=O)[C@@H]3CN(S(=O)(=O)c4c(C)noc4C)C[C@H]3c3c(C)cccc3C)CC2)c1 [Example 106, [1-(3,5-Dimethylisoxazole-4-sulfonyl)-3,4-trans-4-(2,6-dimethylphenyl)pyrrolidin-3-yl]-[4-(2,5-dimethylphenyl)piperazin-1-yl]methanone trifluoroacetate]"
